Laboratory results from patent publication US5135938A, “Leukotriene antagonists” (SmithKline Beecham Corporation, priority 1990, dated 1992).
Structures can show the parent of a compound that is named as a salt.

Target: T1, LTD4 induced contraction of guinea pig tracheal spiral strips (Cavia porcellus, UniProt Q2NNR5)
T1 construct: Guinea pig (adult male albino Hartley strain) tracheal spiral strips; from tissue; host or cells: guinea pig trachea (adult male albino Hartley strain), spiral strips
T1 sequence (Q2NNR5 1-340): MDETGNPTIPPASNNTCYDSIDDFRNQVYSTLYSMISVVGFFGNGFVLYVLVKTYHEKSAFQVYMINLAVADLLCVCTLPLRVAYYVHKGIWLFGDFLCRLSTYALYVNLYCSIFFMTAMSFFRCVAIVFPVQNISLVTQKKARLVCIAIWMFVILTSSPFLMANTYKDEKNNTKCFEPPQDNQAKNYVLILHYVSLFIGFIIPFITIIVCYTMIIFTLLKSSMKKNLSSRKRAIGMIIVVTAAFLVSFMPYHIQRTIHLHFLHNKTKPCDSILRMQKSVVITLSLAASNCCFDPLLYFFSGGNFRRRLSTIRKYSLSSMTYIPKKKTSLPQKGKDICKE
Experiment: Inhibition of leukotriene (LTD4) induced contraction of guinea pig tracheal tissues in vitro
Type: cell-based
Conditions: LTD4 concentration-response on guinea pig tracheal strips, 30 minutes pretreatment with test compound; KB from EC30 shift; current average where tested more than once; read-out: In Vitro Log K8 (-log KB, leukotriene antagonist activity) (converted)
Protocol: The leukotriene antagonist activity of the compounds of this invention is measured by the ability of the compounds to inhibit the leukotriene induced contraction of guinea pig tracheal tissues in vitro. The following methodology was employed:
In vitro: Guinea pig (adult male albino Hartley strain) tracheal spiral strips of approximate dimensions 2 to 3 mm cross-sectional width an 3.5 cm length were bathed in modified Krebs buffer in jacketed 10 ml tissue bath and continuously aerated with 95% O2 /5% CO2. The tissues were connected via silk suture to force displacement transducers for recording isometric tension. The tissues were equilibrated for 1 hr., pretreated for 15 minutes with meclofenamic acid […] to remove intrinsic prostaglandin responses, and then pretreated for an additional 30 minutes with either the test compound or vehicle control. A cumulative concentration-response curve for LTD4 on triplicate tissues was generated by successive increases in the bath concentration of the LTD4. In order to minimize intertissue variability, the percentage of the maximum response obtained to a reference agonist, carbachol […].
Calculations: The averages of the triplicate LTD4 concentration-response curves both in the presence and absence of the test compound were plotted on log graph paper. The concentration of LTD4 needed to elicit 30% of the contraction elicited by carbachol was measured and defined as the EC30. The -log KB value for the test compound was determined by the following equations: [formula] 2. KB =concentration of test compound/(X-1)
The antagonist activity of representative compounds of this invention is tabulated below in Table I (other data appears in the preparative examples). The -log KB values were calculated from the above test protocol. Where compounds were tested more than once, the -log KB values given herein represent the current average data.

SMILES	Kb
CCCCCCCCCCCCc1ccccc1C(CC(=O)O)Sc1nnnn1CCCC(=O)O (stereo not drawn) [Example 6, 3-(2-dodecylphenyl)-3-[[1-(3-carboxypropyl)-5-tetrazolyl]thio]propanoicacid]	251 nM
CCCCCCCCCCCCc1ccccc1C(Sc1nnnn1CS(=O)(=O)O)C(=O)O (stereo not drawn) [Example 4, 2-(2-Dodecylphenyl)-2-[(1-sulfomethyl-5-tetrazolyl)thio]acetic acid ammonium salt hydrate]	398 nM
CCCCCCCCCCCCc1ccccc1C(Sc1nc(C)c(C(=O)O)s1)C(=O)O (stereo not drawn) [Example 15, 2-(2-Dodecylphenyl)-2-(5-carboxy-4-methyl-2-thiazolylthio)acetic acid]	200 nM
O=C(O)CC(Sc1nnnn1CC(=O)O)c1ccccc1CCCCCCCCc1ccccc1 (stereo not drawn) [Example 7, 3-[2-(8-Phenyloctyl)phenyl]-3-[(1-carboxymethyl-5-tetrazolyl)thio]propanoic acid]	501 nM
CCCCCCCCCCCCc1ccccc1C(Sc1nnnn1CCCC(=O)O)C(=O)O (stereo not drawn) [Example 3, 2-(2-Dodecylphenyl)-2-[[1-(3-carboxypropyl)-5-tetrazolyl]thio]acetic acid]	39.8 nM
CCCCCCCCCCCCc1ccccc1C(SCCc1nnn[nH]1)C(=O)O (stereo not drawn) [Example 12, 2-(2-dodecylphenyl)-2-[2-(tetrazol-5-yl)ethylthio]acetic acid]	316 nM

More lines, now with the values ahead:

Kb	SMILES
100 nM	O=C(O)CCCn1nnnc1SC(c1ccccc1CCCCCCCCc1ccccc1)C(O)C(=O)O (stereo not drawn) [Example 13, 3-[2-(8-phenyloctyl)phenyl]-3-[[1-(3-carboxypropyl)-5-tetrazolyl]thio]-2-hydroxypropanoic acid]
1000 nM	O=C(O)CCCn1nnnc1SC(CC(=O)O)c1ccccc1CCCCCCCCc1ccccc1 (stereo not drawn) [Example 8, 3-[2-(8-Phenyloctyl)phenyl]-3-[[1-(3-carboxypropyl)-5-tetrazolyl]thio]propanoic acid]
100 nM	O=C(O)Cn1nnnc1SC(c1ccccc1CCCCCCCCc1ccccc1)C(O)C(=O)O (stereo not drawn) [Example 14, 3-[2-(8-phenyloctyl)phenyl]-3-[(1-carboxymethyl-5-tetrazolyl)thio]-2-hydroxypropanoic acid]
